According to patent US20110244472A1, “Cancer stem cell immortalization” (priority 2008, published 2011):

Assays:
[1] = system: Oct3/4-GFP(+) MCF7 cells vs control Oct3/4-GFP(-) MCF cells; assay: Initial small molecule screen in 384 well plates, CellTiter-Blue cell viability; format: cell-based; settings: 5 μM, 72 hours
Protocol: Experiments were performed to determine whether the growth of Oct3/4-GFP(+) MCF cells could be inhibited with novel small molecules. Oct3/4-GFP(+) MCF7 cells were used as the target population. Control cells consisted of Oct3/4-GFP(−)MCF cells (lacking an Oct3/4-GFP cassette) that were infected with a GFP-expressing lentivirus as a way of controlling for GFP expression. Initial screenings were performed in 384 well plates on triplicate samples as follows.
(§1) First, the cell cultures were prepared by trypsinizing and resuspending the cells in MCF7 culture medium (alpha MEM, 10% FBS, 2 mM Glutamine, 1 mM Sodium Pyruvate, 1 mM non-essential amino acids, 100 U/ml Penicillin/Streptomycin) at a density of 4×10^4/ml. The screen was then performed by (1) diluting compounds to 30 μM using alpha MEM; (2) adding […] of compound-containing solution to each well (which will result in a final concentration of 5 μM); (3) adding 25 μl of cell suspension to each well (1000 cells/well); and (4) incubating the cells with compounds for 72 hours at 37° C., 5% CO2. Cell viability was then assessed using the CellTiter-Blue® assay by Promega, modified as follows. Since there were 30 ul medium in each well, 6 μl CellTiter-Blue was added to each well. The plates were then incubated at 37° C. for 2.5 hours. The plates were then read on a SpectraMax M5 Microplate Reader using the wavelength of excitation 560 nm/emission 590 nm.
(§2) Then, a secondary set of experiments were performed in 12 well plates in which 2000 cells/well were initially seeded and allowed to attach for one day. The following day (day 0), the medium was replaced with fresh medium containing 0.8 μM of each of these three compounds. Cell counts were then performed manually on triplicate wells over a period of three days. Oct3/4-GFP+ MCF7 cells are represented by the lower, dashed curve in all three panels.

Oct3/4-GFP+ MCF7 cells = assay: Secondary growth experiment in 12 well plates, manual cell counts; format: cell-based; settings: 0.8 μM, cell counts over three days, FIG. 11
Protocol: as §2

[2] = system: non-stem cell and Oct3/4-GFP+ CSCs prepared from three breast cancer cell lines, MCF7, MB231 and MB453; assay: LOPAC screen for CSC-specific inhibitory activity; format: cell-based; settings: CSCs from at least one of MCF7, MB231, MB453; FIG. 14A
Protocol: (§3) FIG. 14A-E. Testing various chemical compounds for CSC-specific inhibitory activity in non-stem MCF7, MDA-MB231 or MDA-MB453 or in Oct3/4-GFP+ CSC cells of those same lines. CSC are denoted by solid circles ([…])_ and non-stem cells are denoted by solid squares (▪).
as §1
(§4) 1280 compounds from the Library of Pharmacologically Active Compounds (“LOPAC”) were screened for activity against non-stem cell and Oct3/4-GFP+ CSCs prepared from three breast cancer cell lines, MCF7, MB231 and MB453 using methods set forth above.

[3] = system: MDA-MB231 Oct3/4-GFP+ CSC cells; assay: CSC-specific inhibitory activity test, MDA-MB231; format: cell-based; settings: 4 μM, FIG. 14B
Source text: as §3, §4

[4] = system: MCF7 Oct3/4-GFP+ CSC cells; assay: CSC-specific inhibitory activity test, MCF7; format: cell-based; settings: 7 nM, FIG. 14C
Source text: as §3, §4

[5] = system: MDA-MB453 Oct3/4-GFP+ CSC cells; assay: CSC-specific inhibitory activity test, MDA-MB453; format: cell-based; settings: 10 nM, FIG. 14D and E
Source text: as §3, §4

[6] = system: MCF7 cells and Oct3/4-GFP+MCF7 cells; assay: Hoechst 33342 side population (SP) analysis; format: cell-based; settings: 20 μM Reserpine; MCF7 and Oct3/4-GFP+MCF7 cells; Hoechst 33342 exclusion
Source text: In other studies, Oct3/4-GFP+MCF7 cells were examined by qRT-PCR for expression of the breast cancer CSC markers CD133 and Oct3/4. After normalizing to GAPDH, the ratios of these transcripts in Oct3/4-GFP+MCF7 cells and non-CSC-MCF7 cells were 6.3 for CD133 and 2.5 for Oct3/4. […] The SP is due to CSCs ability to exclude the dye Hoechst 33342 and reflects high expression of […] transporters such as MDR1 and BRCP (30). […] These fractions could also be reduced by >70% following exposure to 20 μM Reserpine, which inhibits ABC transporters (30). Moreover, the overall mean fluorescence intensity of the entire Oct3/4-GFP+MCF population was two-fold lower than that of the MCF7 population. Thus, based on independent qRT-PCR assessments of CSC gene expression profiles and on uptake/exclusion of Hoechst 33342, one can conclude that the Oct3/4-GFP+MCF7 population consists of highly enriched and stable cells that are unable to differentiate into TACs.

[7] = system: MCF7 cells and Oct3/4-GFP+MCF7 CSCs; assay: Differential chemotherapeutic responses, viable adherent cells by trypan blue exclusion; format: cell-based; settings: number of viable adherent cells over time, triplicate plates
Protocol: FIG. 6. Differential chemotherapeutic responses of MCF7 and Oct3/4-GFP+MCF7 cells. 10^5 unfractionated, MCF7 cells (dotted line) or Oct3/4GFP+MCF7 cells (broken line) were seeded into 6 well plates and allowed to achieve ca. 30-50% confluence. The indicated concentrations of adriamycin, etoposide, 5-fluorouracil, cis-platinum, methotrexate, and taxol were then added (day 0). The total number of viable adherent cells was then determined at the indicated times by trypan blue exclusion. […] Note that in most cases Oct4/4-GFP+MCF7 actually grew in the presence of all agents. These experiments were repeated at least two additional times with similar outcomes.
5. Differential chemosensitivities of Oct3/4-GFP+MCF7 cells. It is believed that CSCs are more resistant to chemotherapeutic agents than TACs, thus at least partly accounting for the propensity of many tumors to relapse after an initial response (12,27,36). To test this idea, MCF7 cells and Oct3/4-GFP+MCF7 CSCs were exposed to six different chemotherapeutic agents commonly employed to treat breast cancer.

topoisomerase I = assay: Doxycycline-induced shRNA knockdown of topoisomerase I expression (mRNA, Western blot); format: cell-based, human; settings: FIGS. 17 and 18
Source text: FIG. 17. Topoisomerase I expression in topoisomerase I shRNA-treated cells.
FIG. 18. Western blot analysis of topoisomerase I expression in CSC and non-stem cell versions of MCF7, MDA-MB453, BTL12 and MDA-MB231 cells with or without doxycycline-induced (“dox”) shRNA knockdown.
(§5) To test this hypothesis further, small hairpin RNA (shRNA) was used to knockdown topoisomerase I using a conditional shRNA expression system (pTRIPZ vector-Origene, Inc.), in which expression of the shRNA is induced by doxycycline. The shRNA used had the sequence: […] […] (SEQ ID NO:10, NM_003286).

[8] = system: non-stem and CSC versions of MCF7, MDA-MB453 and BTL12 cells; assay: Effect of topoisomerase I shRNA knockdown on cultures of non-stem and CSC cells; format: cell-based; settings: doxycycline-induced, FIG. 20A-C
Source text: FIG. 20A-C. Evaluation of the effect of doxycycline-inducible shRNA targeting topoisomerase I in non-stem MCF7, MDA-MB453 or BTL12 or in Oct3/4-GFP+ CSC cells of those same lines. (A) MCF7. (B) MDA-MB453. (C) BTL12.
as §5

[9] = system: tumor xenografts from non-stem and CSC MCF7 cells; assay: Effect of topoisomerase I shRNA knockdown on tumor xenografts; format: in vivo; settings: doxycycline-induced knockdown; xenografts in nude mice; FIG. 21A-B
Source text: FIG. 21A-B. Evaluation of the effect of doxycycline-inducible shRNA targeting topoisomerase I in tumor xenografts generated from (A) non-stem MCF7 cells or (B) Oct3/4-GFP(+) MCF7 CSC cells.
as §5

Molecule: CCn1cnc2c(Nc3cccc(Cl)c3)nc(N[C@@H]3CCCC[C@@H]3N)nc21.Cl (relative stereo) [CGP74514A, N2-(cis-2-aminocyclohexyl)-N6-(3-chlorophenyl)-9-ethyl-9H-purine-2,6-diamine hydrochloride]
- selectivity for Oct3/4-GFP(+) MCF7 cells in initial screening [1]: potentially selective agents
- selective inhibition of Oct3/4-GFP+ MCF cells (Oct3/4-GFP+ MCF7 cells): Selective inhibition

Molecule: Cl.NCC1OC(C23CC4CC(CC(C4)C2)C3)Cc2c1ccc(O)c2O (stereo not shown) [A77636, 3-(1′-adamantyl)-1-aminomethyl-3,4-dihydro-5,6-dihydroxy-1H-2-benzopyran hydrochloride]
- selectivity for Oct3/4-GFP(+) MCF7 cells in initial screening [1]: potentially selective agents
- selective inhibition of Oct3/4-GFP+ MCF cells (Oct3/4-GFP+ MCF7 cells): Selective inhibition
- selective inhibition of growth of CSCs [2]: selectively inhibited growth of CSCs

Molecule: O=C1C=C(NCCN2CCOCC2)C(=O)c2ncccc21 [JUN1111]
- CSC-selective inhibitory activity [3]: CSC-selective inhibitory activity

Molecule: NC(=S)N/N=C/c1ccc([N+](=O)[O-])s1 [NSC725]
- CSC-selective inhibitory activity [4]: CSC-selective inhibitory activity
- CSC-selective inhibitory activity [5]: CSC-selective activity

Molecule: Nc1nc(N)c2[nH]cnc2n1 [NSC743]
- CSC-selective inhibitory activity [5]: CSC-selective activity

Molecule: COC(=O)[C@H]1[C@H]2C[C@@H]3c4[nH]c5cc(OC)ccc5c4CCN3C[C@H]2C[C@@H](OC(=O)c2cc(OC)c(OC)c(OC)c2)[C@@H]1OC [Reserpine]
- reduction of side population (SP) fractions [6]: > 70%

Molecule: CC(=O)c1c(O)c(C)c(O)c(Cc2c(O)c3c(c(C(=O)/C=C/c4ccccc4)c2O)OC(C)(C)C=C3)c1O [Rottlerin, (Z)-1-[6-[(3-acetyl-2,4,6-trihydroxy-5-methylphenyl)methyl]-5,7-dihydroxy-2,2-dimethylchromen-8-yl]-3-phenylpro-2-en-1-one]
- selectivity for Oct3/4-GFP(+) MCF7 cells in initial screening [1]: potentially selective agents
- selective inhibition of Oct3/4-GFP+ MCF cells (Oct3/4-GFP+ MCF7 cells): Selective inhibition
- selective inhibition of growth of CSCs [2]: selectively inhibited growth of CSCs

Molecule: CC(=O)O[C@H]1C(=O)[C@@]2(C)[C@H]([C@H](OC(=O)c3ccccc3)[C@]3(O)C[C@H](OC(=O)[C@H](O)[C@@H](NC(=O)c4ccccc4)c4ccccc4)C(C)=C1C3(C)C)[C@]1(OC(C)=O)CO[C@@H]1C[C@@H]2O [taxol]
- sensitivity of Oct3/4-GFP+MCF7 cells relative to MCF7 cells [7]: significantly more sensitive

Molecule: CC1(C)CCC2=C(O1)c1ccccc1C(=O)C2=O [β-lapachone]
- selective inhibition of growth of CSCs [2]: selectively inhibited growth of CSCs

B1: shRNA: doxycycline-inducible small hairpin RNA homologous to the topoisomerase I gene, SEQ ID NO:10, pTRIPZ vector (nucleic acid)
chain: TGCTGTTGACAGTGAGCGCGCTGATTATAAACCTAAGAAATAGTGAAGCCACAGATGTATTTCTTAGGTTTATAATCAGCATGCCTACTGCCTCGGA
- topoisomerase I mRNA and protein expression (topoisomerase I): successfully knocked-down mRNA and protein expression
- effect of knockdown on CSCs relative to non-stem cells (viable cells) [8]: more profound on CSCs relative to their non-stem cell counterparts
- reduction in tumor size, CSC-generated vs non-stem tumors [9]: proportionally greater for the CSC-generated tumors
- tumor size [9]: decreased the size of tumors resulting from both non-stem and CSC MCF7 cells
